# Measured values reported in US20260103471A1, “CYCLIC UREA THIAZOLYL COMPOUNDS FOR TREATMENT OF HSV” (Assembly Biosciences, Inc., priority 2022, published 2026).
# Like-named read-outs stand apart in the source and are kept apart here.
# Assays:
# HSV-2 G strain = assay: HSV-2 Antiviral Assay (Vero cells, cell viability); type: cell-based; settings: for EC50: Human alphaherpesvirus 2, Vero, 120 h, Vero cells, 5 days
# Summary of the method: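 Vero cells (1.0×10^4/well, attached overnight) given 8-point 3-fold compound dilutions (0.5% DMSO) then infected with 160 TCID50 HSV-2 G strain in 2% FBS medium for 5 days at 37 °C. Protection read as cell viability by WST-8 absorbance at 460 and 620 nm after 3 h.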
# HSV-1 = HSV-1 Antiviral Assay (Vero cells, cell viability); type: cell-based; settings: for EC50: Human alphaherpesvirus 1, 96 h, Vero cells, read-out: HSV-1 EC50
# Procedure: Vero cells were cultured in Dulbecco's Modified Eagle Medium (DMVEM) supplemented with […] and 100 units/mL penicillin and streptomycin. The cells were passaged 2-3 times per week to maintain sub-confluent densities.
# Vero cells were seeded into 96-well plates at a density of 2.5×10^3 cells per well and allowed to attach overnight. Following attachment, the media was replaced with 50 μL of infection medium (DMVEM supplemented with 2% fetal bovine serum and 100 units/mL penicillin and streptomycin). A Tecan D300e digital dispenser was then used to add compounds to the culture using an 8-point 3-fold serial dilution format. The DMSO concentration was normalized to 0.5% for all treatments. Following compound addition, 50 μL of infection medium containing 80 TCID50 HSV-1 was added to the cells and incubated at 37° C. for 4 days. After the incubation, the plates were equilibrated to room temperature, the media was removed, and […] a 1:1 dilution of Cell titer glow and phosphate buffered saline was added to the cells. Following a 5-minute incubation, cell viability was quantified by measuring luminance using a Tecan Infinite M1000 Pro plate reader.
# [1] = 160 TCID50 HSV-2 G strain, cell viability
# [2] = 80 TCID50 HSV-1, 4 days, cell viability
# [3] = ratio of EC50 vs Example 87 in WO2001047904
SMILES,EC50 (HSV-2 G strain; [1]),EC50 (HSV-1; [2]),also measured
Cc1nc(N2CCN(c3ccc(-c4cc(F)ccc4F)cc3)C2=O)sc1S(N)(=O)=O [Example 104],,,EC50 (HSV-2 G strain): > 2 µM; EC50 (HSV-1; 4 days): 1.74 µM
Cc1nc(N2CCCN(c3ccc(-c4cccc5[nH]c(=O)sc45)cc3)C2=O)sc1S(N)(=O)=O [Compound 78],0.1 to 1 µM,0.1 to 1 µM,
"Cc1nc(N2CC3(CC3)CN(c3ccc(-c4ccnn4C)cc3)C2=O)sc1S(N)(=O)=O [Compound 113, 4-Methyl-2-(7-(4-(1-methyl-1H-pyrazol-5-yl)phenyl)-6-oxo-5,7-diazaspiro[2.5]octan-5-yl)thiazole-5-sulfonamide]",1 to 5 µM,1 to 5 µM,
Cc1nc(N2CCCN(c3ccc(-c4nccc5ccccc45)cc3)C2=O)sc1S(N)(=O)=O [Compound 86],0.1 to 1 µM,0.1 to 1 µM,
"Cc1nc(N(C)C(=O)N(C)c2ccc(-c3cc(F)ccc3F)cc2)sc1S(N)(=O)=O [Reference Compound A, reference compound]",,,EC50 (HSV-2 G strain): 0.925 µM; fold less active than Example 5 in the HSV-2 assay (HSV-2 G strain; ratio of EC50 vs Example 5): 92 fold; fold less active than acyclic amide analog Example 87 in the HSV-2 assay (HSV-2 G strain; [3]): 54 fold; EC50 (HSV-1; 4 days): 0.844 µM; fold less active than Example 5 in the HSV-1 assay (HSV-1; ratio of EC50 vs Example 5): 44 fold; fold less active than acyclic amide analog Example 87 in the HSV-1 assay (HSV-1; [3]): 50 fold
Cc1nc(N2CCCN(c3ccc(-c4cccc5cn[nH]c45)cc3)C2=O)sc1S(N)(=O)=O [Compound 54],0.1 to 1 µM,0.1 to 1 µM,
"Cc1nc(N2CCCN(C(C)c3cccc(-c4cc(F)ccc4F)c3)C2=O)sc1S(N)(=O)=O (stereo not shown) [Compound 174, 2-(3-(1-(2′,5′-Difluoro-[1,1′-biphenyl]-3-yl)ethyl)-2-oxotetrahydropyrimidin-1(2H)-yl)-4-methylthiazole-5-sulfonamide]",1 to 5 µM,1 to 5 µM,
"Cc1nc(N2CCCN(c3ccc(-c4cc(F)ccc4F)cc3)C2=O)sc1[S@@](C)(=N)=O (single isomer, unassigned) [Compound 140]",0.1 to 1 µM,0.1 to 1 µM,
Cc1nc(N2CCCN(c3ccc(-c4ccccc4F)cc3F)C2=O)sc1S(=O)(=O)NC1CC1 [Compound 131],0.1 to 1 µM,0.1 to 1 µM,
Cc1nc(N2CCCN(c3ccc(-c4cc(F)ccc4F)cc3)C2=O)sc1S(=O)(=O)NCCCO [Compound 417],< 0.1 µM,< 0.1 µM,
Cc1nc(N2CCCN(c3ccc(-c4ccccc4F)c(F)c3)C2=O)sc1S(=O)(=O)NC1CC1 [Compound 133],< 0.1 µM,< 0.1 µM,
Cc1nc(N2CC3(COC3)CN(c3ccc(-c4cc(F)ccc4F)cc3)C2=O)sc1S(C)(=O)=O [Compound 436],< 0.1 µM,< 0.1 µM,
Cc1nc(N2CCCN(c3ccc(-c4ccccn4)cc3)C2=O)sc1S(=O)(=O)NC1CC1 [Compound 119],< 0.1 µM,< 0.1 µM,
CNS(=O)(=O)c1sc(N2CCCN(c3ccc(-c4ccccc4F)c(F)c3)C2=O)nc1C [Compound 132],< 0.1 µM,0.1 to 1 µM,
Cc1nc(N2CC3(CC3)CN(c3ccc(-c4cc(F)ccc4F)cc3)C2=O)sc1S(C)(=N)=O (stereo not shown) [Compound 155],< 0.1 µM,< 0.1 µM,
Cc1nc(N2CCCN(c3ccc(-c4ccc(C#CC(C)(C)O)cc4)cc3)C2=O)sc1S(N)(=O)=O [Compound 28],1 to 5 µM,1 to 5 µM,
Cc1nc(N2CCCN(c3ccc(-c4cccc5c4cnn5C(C)C)cc3)C2=O)sc1S(N)(=O)=O [Compound 56],0.1 to 1 µM,0.1 to 1 µM,
Cc1cc2cccc(-c3ccc(N4CCCN(c5nc(C)c(S(N)(=O)=O)s5)C4=O)cc3)c2s1 [Compound 73],< 0.1 µM,< 0.1 µM,
Cc1nc(N2CCCN(c3ccc(-c4cc(F)ccc4F)cc3)C2=O)sc1S(N)(=O)=O [Compound 5],< 0.1 µM,< 0.1 µM,
Cc1nc(N2CCCN(c3ccc(-c4ncco4)cc3)C2=O)sc1S(N)(=O)=O [Compound 41],0.1 to 1 µM,0.1 to 1 µM,
"C#Cc1ccc(F)c(-c2ccc(N3CCCN(c4nc(C)c(S(N)(=O)=O)s4)C3=O)cc2)c1 [Compound 17, 2-(3-(5′-Ethynyl-2′-fluoro-[1,1′-biphenyl]-4-yl)-2-oxotetrahydropyrimidin-1(2H)-yl)-4-methylthiazole-5-sulfonamide]",< 0.1 µM,< 0.1 µM,
Cc1nc(N2CCCN(c3ccc(-c4cccc5c4OC(F)(F)O5)cc3)C2=O)sc1S(N)(=O)=O [Compound 80],< 0.1 µM,< 0.1 µM,
CNS(=O)(=O)c1sc(N2CCCN(c3ccc(-c4ccccc4F)cc3)C2=O)nc1C [Compound 120],< 0.1 µM,< 0.1 µM,
Cc1nc(N2CCCN(c3ccc(-c4cccc5ncccc45)cc3)C2=O)sc1S(N)(=O)=O [Compound 84],< 0.1 µM,0.1 to 1 µM,
COc1ccc(F)c(-c2ccc(N3CCCN(c4nc(C)c(S(N)(=O)=O)s4)C3=O)cc2)c1 [Compound 26],< 0.1 µM,< 0.1 µM,

# Second part, led by results:
EC50 (HSV-2 G strain; [1]),EC50 (HSV-1; [2]),SMILES,also measured
< 0.1 µM,< 0.1 µM,"Cc1nc(N2C[C@H](C(C)(C)O)CN(c3ccc(-c4cc(F)ccc4F)cc3)C2=O)sc1S(N)(=O)=O (single isomer, unassigned) [Compound 343]",
< 0.1 µM,< 0.1 µM,Cc1nc(N2C[C@H](C)CN(c3ccc(-c4ccccc4F)cc3)C2=O)sc1S(N)(=O)=O [Compound 316],
< 0.1 µM,< 0.1 µM,CNS(=O)(=O)c1sc(N2CCCN(Cc3cccc(-c4ccccc4)c3)C2=O)nc1C [Compound 182],
< 0.1 µM,< 0.1 µM,CNS(=O)(=O)c1sc(N2CCCN(c3ccc(-c4cc(F)ccn4)cc3)C2=O)nc1C [Compound 121],
< 0.1 µM,< 0.1 µM,Cc1nc(N2CCCN(c3ccc(-c4cc(F)ccc4C(F)F)cc3)C2=O)sc1S(N)(=O)=O [Compound 194],
< 0.1 µM,< 0.1 µM,"Cc1nc(N2C[C@@H](C)CN(c3ccc(-c4ccccc4Cl)cc3)C2=O)sc1S(N)(=O)=O (single isomer, unassigned) [Compound 323]",
< 0.1 µM,< 0.1 µM,CNS(=O)(=O)c1sc(N2CCCN(c3ccc(-c4nccs4)cc3)C2=O)nc1C [Compound 126],
< 0.1 µM,< 0.1 µM,Cc1nc(N2CCCN(c3ccc(-c4cc(Cl)cc5ncsc45)cc3)C2=O)sc1S(N)(=O)=O [Compound 277],
< 0.1 µM,< 0.1 µM,Cc1nc(N2CCCN(c3ccc(-c4cc(F)cc(F)c4F)cc3)C2=O)sc1S(N)(=O)=O [Compound 7],
< 0.1 µM,< 0.1 µM,Cc1nc(N2CCCN(c3ccc(-c4cc(F)cc5nonc45)cc3)C2=O)sc1S(N)(=O)=O [Compound 245],
< 0.1 µM,< 0.1 µM,Cc1nc(N2CCCN(c3ccc(-c4ccccc4C(F)F)cc3)C2=O)sc1S(N)(=O)=O [Compound 12],
< 0.1 µM,< 0.1 µM,Cc1nc(N2CC3(COC3)CN(c3ccc(-c4cc(F)cc(-c5cnn(C(F)F)c5)c4F)cc3)C2=O)sc1S(N)(=O)=O [Compound 342],
< 0.1 µM,< 0.1 µM,Cc1nc(N2CCCN(c3ccc(-c4ccccn4)c(F)c3)C2=O)sc1S(N)(=O)=O [Compound 97],
< 0.1 µM,0.1 to 1 µM,"Cc1nc(N2CC3(CC3)CN(c3ccc(-c4cc(F)ccc4F)cc3)C2=O)sc1[S@@](C)(=N)=O (single isomer, unassigned) [Compound 157]",
< 0.1 µM,< 0.1 µM,Cc1nc(N2CCCN(c3ccc(-c4nccs4)cc3)C2=O)sc1S(=O)(=O)NC1CC1 [Compound 127],
< 0.1 µM,< 0.1 µM,CNS(=O)(=O)c1sc(N2CCCN(c3ccc(-c4cccc(N)n4)cc3)C2=O)nc1C [Compound 123],
< 0.1 µM,< 0.1 µM,Cc1nc(N2CCCN(c3ccc(-c4cc(F)ccc4F)cc3)C2=O)sc1S(C)(=O)=O [Compound 161],
< 0.1 µM,< 0.1 µM,COc1c(F)cc(F)cc1-c1ccc(N2CCCN(c3nc(C)c(S(N)(=O)=O)s3)C2=O)cc1 [Compound 216],
< 0.1 µM,< 0.1 µM,Cc1nc(N2CCCN(c3ccc(-c4cc(F)ccc4F)cc3)C2=O)sc1S(=O)(=O)NC1CC1 [Compound 117],
< 0.1 µM,< 0.1 µM,"Cc1nc(N2CCCN(c3ccc(-c4ccccn4)cc3)C2=O)sc1S(N)(=O)=O [Compound 1, 4-Methyl-2-(2-oxo-3-(4-(pyridin-2-yl)phenyl)tetrahydropyrimidin-1(2H)-yl) thiazole-5-sulfonamide]",
< 0.1 µM,< 0.1 µM,Cc1nc(N2CCCCN(c3ccc(-c4ccccn4)cc3)C2=O)sc1S(N)(=O)=O [Compound 103],
< 0.1 µM,< 0.1 µM,"Cc1nc(N2CC3(CC3)CN(c3ccc(-c4cc(F)ccc4F)cc3)C2=O)sc1[S@](C)(=N)=O (single isomer, unassigned) [Compound 156]",
< 0.1 µM,< 0.1 µM,"Cc1nc(N2CC3(CC3)CN(c3ccc(-c4cc(F)ccc4F)cc3)C2=O)sc1S(N)(=O)=O [Compound 110, 2-(7-(2′,5′-Difluoro-[1,1′-biphenyl]-4-yl)-6-oxo-5,7-diazaspiro [2.5]octan-5-yl)-4-methylthiazole-5-sulfonamide]",
